These are literature values, as cited in patent publication US7198928B2, “Human COX-1 alternatively spliced variants and methods of using same” (Allergan, Inc., priority 2003, dated 2007).

Structures are written as SMILES.

For data set [1] the following is noted: humans treated with rofecoxib, in comparison with patients receiving naproxen.
In the next data set the test system is COX-1. Conditions: human iris vs human blood.

As for `CS(=O)(=O)c1ccc(C2=C(c3ccccc3)C(=O)OC2)cc1` [rofecoxib], the thrombotic cardiovascular events result in data set [1] is reported as “significant increase in thrombotic cardiovascular events”.
For `C[C@H](C(=O)O)c1ccc(-c2ccccc2)c(F)c1` [S(+)flurbiprofen], the “potency of COX-1 inhibition in human iris relative to human blood” value in the data set with COX-1 is 70 fold.
